Data as given in PubChem BioAssay (NCI).
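Test compounds were applied to cells in 96-well plates for 48 hours at 5 doses. TGI denotes the concentration required for complete inhibition of growth.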 *1 amine or outer side, *2 acyl side, *3 side chain or, on linkers, in order; H or OH if unused. Where a SMILES comes first, the peptide text is derived from it. [ ]: non-standard residue; d: D form. The star is where a group is joined. ξ: configuration not given here. X27 = O=C([C@H]1CCC[C@H]1N[*:1])[*:2]; ξW = NC(Cc1c[nH]c2ccccc12)C(=O)O; ξF = NC(Cc1ccccc1)C(=O)O; Boc = CC(C)(C)OC(=O)*; ξK = NCCCCC(N)C(=O)O; ξT = CC(O)C(N)C(=O)O; tBu = CC(C)(C)*

What was measured:
Assay in all cases: NCI tumour cell line growth inhibition, 48 h
[1] = test system: A549 NSCLC
[2] = test system: MDA-MB-231 breast
[3] = test system: NCI-H226 lung
[4] = test system: SR leukemia
[5] = test system: IGROV1 ovarian
[6] = test system: MCF7 breast
[7] = test system: ACHN renal
[8] = test system: SK-MEL-5 melanoma
[9] = test system: HCT-116 colon
[10] = test system: MOLT-4 leukemia
[11] = test system: UACC-62 melanoma
[12] = test system: HT29 colon
[13] = test system: RXF 393 renal
[14] = test system: SNB-19 CNS
[15] = test system: MALME-3M melanoma
[16] = test system: HOP-62 NSCLC
[17] = test system: OVCAR-3 ovarian
[18] = test system: T-47D breast
[19] = test system: CAKI-1 renal
[20] = test system: PC-3 prostate

Structure (SMILES) | TGI [1] | TGI [2] | TGI [3] | TGI [4] | TGI [5] | TGI [6] | TGI [7] | TGI [8] | TGI [9] | TGI [10] | TGI [11] | TGI [12] | TGI [13] | TGI [14] | TGI [15] | TGI [16] | TGI [17] | TGI [18] | TGI [19] | TGI [20]
CC(OC(C)(C)C)C1NC(=O)C(CCCCNC(=O)OC(C)(C)C)NC(=O)C(Cc2c[nH]c3ccccc23)NC(=O)C(Cc2ccccc2)NC(=O)[C@H]2CCC[C@H]2NC(=O)C(Cc2ccccc2)NC1=O (stereo not given in full) (cyclo([X27][ξF][ξW][ξK](Boc)[ξT](tBu)[ξF])) | > 100 µM | > 100 µM | > 100 µM | > 100 µM | > 100 µM | > 100 µM | > 100 µM | 16.1 µM | > 100 µM | > 100 µM | > 100 µM | > 100 µM | > 100 µM | 69.6 µM | > 100 µM | > 100 µM | > 100 µM | > 100 µM | > 100 µM | > 100 µM
Cc1ccc(S(=O)(=O)N2CCN(S(=O)(=O)c3ccc(C)cc3)CCN(S(=O)(=O)c3ccc(C)cc3)Cc3cc(C#N)c(C#N)cc3CN(S(=O)(=O)c3ccc(C)cc3)CC2)cc1 | > 100 µM | > 100 µM | > 100 µM | > 100 µM | > 100 µM | > 100 µM | > 100 µM | > 100 µM | > 100 µM | > 100 µM | > 100 µM | > 100 µM | > 100 µM | > 100 µM | > 100 µM | > 100 µM | > 100 µM | > 100 µM | > 100 µM | > 100 µM
Cn1c(NNc2ccccc2)cc(=O)[nH]c1=O | > 100 µM | > 100 µM | > 100 µM | > 100 µM | > 100 µM | > 100 µM | > 100 µM | 70.1 µM | > 100 µM | > 100 µM | > 100 µM | > 100 µM | > 100 µM | > 100 µM | > 100 µM | > 100 µM | 61.6 µM | > 100 µM | > 100 µM | > 100 µM
